Drawing on ChEMBL document CHEMBL2021816, “Synthesis and acrosin inhibitory activity of methyl 5-substituted-1H-benzo[d]imidazol-2-yl carbamate derivatives” (Bioorg Med Chem Lett, 2012), this text covers IC50 for 25 compounds.

Molecules are shown by their SMILES.

Chain of Acrosin (P10323 20-42 limits assumed): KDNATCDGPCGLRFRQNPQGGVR
Chain of Acrosin (P10323 43-343 limits assumed): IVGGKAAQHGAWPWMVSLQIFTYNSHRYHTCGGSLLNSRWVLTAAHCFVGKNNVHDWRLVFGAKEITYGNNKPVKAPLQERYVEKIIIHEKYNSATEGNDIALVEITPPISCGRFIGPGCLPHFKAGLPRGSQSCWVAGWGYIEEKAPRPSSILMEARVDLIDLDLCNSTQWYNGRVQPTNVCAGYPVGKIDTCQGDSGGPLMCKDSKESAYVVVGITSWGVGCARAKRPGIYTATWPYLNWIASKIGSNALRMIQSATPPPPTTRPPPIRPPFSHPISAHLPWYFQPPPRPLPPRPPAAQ

The assay concerns the target Acrosin (Homo sapiens, UniProt P10323). The assay is described as follows: Inhibition of acrosin in human spermatozoa assessed as effect on amidase activity after 3 hrs incubation by spectrophotometry.
The IC50 is the concentration that inhibits the measured activity by half. With `COC(=O)Nc1nc2ccc(S(=O)(=O)NCc3ccccc3)cc2[nH]1`, the IC50 was 1030 µM.
The figure for `COC(=O)Nc1nc2ccc(S(=O)(=O)NCc3ccc(F)cc3F)cc2[nH]1` is 1550 µM; for `COC(=O)Nc1nc2ccc(S(=O)(=O)NCc3ccccc3F)cc2[nH]1` it is 310 µM; for `CCCCNS(=O)(=O)c1ccc2nc(NC(=O)OC)[nH]c2c1` it is 1770 µM.
The figure for `COC(=O)Nc1nc2ccc(S(=O)(=O)NCc3ccc(Cl)cc3)cc2[nH]1` is 7520 µM; for `COC(=O)Nc1nc2ccc(S(=O)(=O)N(CCC(C)C)CCC(C)C)cc2[nH]1` it is 63 µM.
The figure for `COC(=O)Nc1nc2ccc(S(=O)(=O)NCc3ccc(F)c(F)c3)cc2[nH]1` is 1590 µM; for `COC(=O)Nc1nc2ccc(S(=O)(=O)NCc3ccc(F)cc3)cc2[nH]1` it is 2400 µM.
In the case of `COC(=O)Nc1nc2ccc(S(=O)(=O)NCc3cccc(C)c3)cc2[nH]1`, the IC50 came to 5060 µM.
The figure for `COC(=O)Nc1nc2ccc(S(=O)(=O)NCc3ccc(OC)cc3)cc2[nH]1` is 3290 µM; for `COC(=O)Nc1nc2ccc(S(=O)(=O)NCc3ccc(Br)cc3)cc2[nH]1` it is 1640 µM; for `COC(=O)Nc1nc2ccc(S(=O)(=O)NCc3ccccc3Cl)cc2[nH]1` it is 5750 µM.
The figure for `COC(=O)Nc1nc2ccc(S(=O)(=O)NCc3cccc(OC)c3)cc2[nH]1` is 7500 µM; for `COC(=O)Nc1nc2ccc(S(=O)(=O)NCc3ccc(C)cc3)cc2[nH]1` it is 3180 µM.
For `COC(=O)Nc1nc2ccc(S(=O)(=O)NCc3ccc(OC)c(OC)c3)cc2[nH]1` the value was 11500 µM; for `O=Cc1cc(-c2ccc(Cl)cc2Cl)on1`, 1700 µM.
As for `COC(=O)Nc1nc2ccc(S(=O)(=O)Nc3cc(C)ccc3C)cc2[nH]1`, the IC50 was found to be 8860 µM.
For `COC(=O)Nc1nc2ccc(S(=O)(=O)NCc3ccc(Cl)cc3Cl)cc2[nH]1` the value was 1270 µM; for `COC(=O)Nc1nc2ccc(S(=O)(=O)NCc3ccccc3OC)cc2[nH]1`, 8420 µM; for `COC(=O)Nc1nc2ccc(S(=O)(=O)N(C)Cc3ccccc3)cc2[nH]1`, 1250 µM.
For `COC(=O)Nc1nc2ccc(S(=O)(=O)NCc3ccc(C(F)(F)F)cc3)cc2[nH]1` the value was 10700 µM.
With `COC(=O)Nc1nc2ccc(S(=O)(=O)NCc3cccc(F)c3)cc2[nH]1`, the IC50 turned out to be 1810 µM.
The figure for `COC(=O)Nc1nc2ccc(S(=O)(=O)NC(C)C)cc2[nH]1` is 470 µM; for `CCCCCCNS(=O)(=O)c1ccc2nc(NC(=O)OC)[nH]c2c1` it is 1800 µM; for `COC(=O)Nc1nc2ccc(S(=O)(=O)NCc3ccc(Cl)c(Cl)c3)cc2[nH]1` it is 4020 µM.
